Laboratory results as given in patent publication US20020082273A1, “Agents for use in the treatment of alzheimer's disease” (priority 1998, published 2002).

Tests used:
Aβ1-42 [1] = biological target: T1, Aβ1-42 (Homo sapiens, UniProt P05067); assay: Effect of metal chelators on H2O2 production from Aβ1-42; type: biochemical; conditions: 1 μM Fe^3+; chelator 200 μM
Alzheimer's disease = conditions: clinical administration; cited from earlier work
[2] = in vivo; cited from earlier work
Aβ1-42 [3] = biological target: T1, Aβ1-42; assay: Effect of chelators on metal reduction by Aβ1-42; type: biochemical; conditions: chelator 200 μM, Fe^3+ 10 μM, ambient oxygenation
[4] = Metal reduction assay, Fe^3+ to Fe^2+; type: biochemical; conditions: 10 μM Fe^3+, PBS pH 7.4, 1 hr 37° C.
Procedure: (§1) The metal reduction assay was performed using a 96-well microtiter plate (Costar) based upon a modification of established protocols (Landers, J. W., et al., Amer. Clin. Path. 29:590 (1958); Landers, J. W., et al., Clinica Chimica Acta 3:329 (1958)). Polypeptides (10 μM) or Vitamin C (100 μM), metal ions (10 μM, Fe(NO3)3 or Cu(NO3)2), and reduced metal ion indicators, bathophenanthrolinedisulfonic acid (BP, for Fe^2+, Sigma, 200 μM) or bathocuproinedisulfonic acid (BC, for Cu^+, Sigma, 200 μM), were coincubated in phosphate buffered saline (PBS), pH 7.4, for 1 hr at 37° C. The metal ion solutions were prepared by direct dilution in the buffer from their aqueous stocks purchased from National Institute of Standards and Technology (NIST). Absorbances were then measured at 536 mn (Fe^2+-BP complex) and 483 nm (Cu^+-BC complex), respectively, using a 96-well plate reader (SPECTRAmax 250, Molecular Devices, CA). In control samples, both metal ion and indicator were present to determine the background buffer signal. As a further control, both metal ion and peptide were present in the absence of indicator to estimate the contribution of light scattering due to turbidity to the absorbance reading at these wavelengths. The net absorbances (ΔA) at 536 nm or 483 nm were obtained by deducting the absorbances from these controls from the absorbances generated by the peptide and metal in the presence of the respective indicator.
The concentrations of reduced metal ions (Fe^2+ or Cu^+) were quantified based on the formula: Fe^2+ or Cu^+ (˜M)=A*10^6/(L*M), where L is the measured equivalent vertical pathlength for a well of 300 μL volume as described in the instrument's specifications manual (0.856 cm for Fe^2+; 1.049 cm for Cu^+); M is the known molecular absorbance (M^−1 cm^−1) which is 7124 (for Fe^2+-BP complex) or 2762 (for Cu^+-BC complex).

[5] = H2O2 assay, production by Aβ peptides; type: biochemical; conditions: 1 μM Fe^3+, ambient O2, PBS pH 7.4, 1 hour 37° C.
Procedure: Polypeptides (10 μM) or Vitamin C (10 μM), Fe^3+ or Cu^2+ (1 μM) and a H2O2 trapping agent-Tris(2-Carboxyethyl)Phosphine Hydrochloride (TCEP, Pierce, 50 μM)-were co-incubated in PBS buffer (300 μL), pH 7.4, for 1 hour at 37° C. Under identical conditions, catalase (Sigma, 100 U/mL) was substituted for the polypeptides, to serve as a control signal representing 0 μM H2O2. Following incubation, the unreacted TCEP was detected by 5,5-Dithio-bis(2-Nitrobenzoic acid) (DTNB, Sigma, 50 KLM) which generates 2 moles of the coloured product.

[6] = Cu^2+-induced SDS-resistant polymerization of Aβ peptides, western blot image analysis; type: biochemical, human
Procedure: Following incubation (37° C.), aliquots of each reaction (2 ng peptide) were collected at 0 d, 1 d, 3 d and 5 d and western blotted using anti-Aβ monoclonal antibody 8E10 (FIG. 9). Migration of the molecular size markers are indicated (kDa). […] It should be noted that other means of visualizing and/or determining the presence or absence of polymerization other than western blot analysis may be used. Such other means include but are not limited to density sedimentation by centrifugation of the samples.
The generation of SDS-resistant Aβ polymers by metal ions was tested by incubating Cu^2+ (30 μM) or Zn^2+ (30 μM) at pH 6.6, 7.4 and 9.0 with Aβ1-40.
(0-30 μM) at pH 7.4 and 6.6 and the samples analyzed by Western blot and the signal quantitated using the Fluoro-S Image Analysis System (Bio-Rad, Hercules, Calif.) as previously described.

[7] = Metal reduction assay, Cu^2+ to Cu^+; type: biochemical; conditions: 10 μM Cu^2+, PBS pH 7.4, 1 hr 37° C.
Procedure: Aβ (10 μM in PBS, pH 7.4 or 6.8, as shown) was incubated for 30 minutes (37° C.) in the presence of Cu^2+10 μM ±Zn^2+ 10 μM). […] levels (n=3, ±SD) were assayed against a standard curve.
as §1, with “Polypeptides” for “The metal reduction assay was performed using a 96-well microtiter plate (Costar) based upon a modification of established protocols (Landers, J. W., et al., Amer. Clin. Path. 29:590 (1958); Landers, J. W., et al., Clinica Chimica Acta 3:329 (1958)). Polypeptides”, “Absorbances were then measured at 536 mn (Fe^2+-BP complex) and 483 nm (Cu^+-BC complex), respectively, using a 96-well plate reader (SPECTRAmax 250, Molecular Devices, CA).” left out

TBARS assay of OH. = type: biochemical; conditions: 10 μM peptide, 1 μM Fe^3+ or Cu^2+
Procedure: All data points are means ±SD, n=3.
The Thiobarbituric Acid-Reactive Substance (TBARS) assay for incubation mixtures with Fe^3+ or Cu^2+ was performed in a 96-well microtiter format modified from established protocols (Gutteridge et al. Biochim. Biophys. Acta 759: 38-41 (1983)). Aβ peptide species (10 μM) or Vitamin C (100 μM), were incubated with Fe^3+ or Cu^2+ (1 μM) and deoxyribose (7.5 mM, Sigma) in PBS, pH 7.4. Following incubation (37° C., 1 hour), glacial (17 M) acetic acid and 2-thiobarburic acid (1%, w/v in 0.05 M NaOH, Sigma) were added and heated (100° C., 10 min). The final mixtures were placed on ice for 1-3 minutes before absorbances at 532 nm were measured. The net absorbance change for each sample were obtained by deducting the absorbance from a control sample consisting of identical chemical components except for the Vitamin C or Aβ peptides.

T1 sequence (P05067 672-713 limits assumed): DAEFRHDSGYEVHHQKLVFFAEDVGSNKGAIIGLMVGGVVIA

CC(=O)N(O)CCCCCNC(=O)CCC(=O)N(O)CCCCCNC(=O)CCC(=O)N(O)CCCCCN [DFO]
effect on H2O2 formation by Aβ1-42 (Aβ1-42 [1]): had no effect on H2O2 formation
effect on progression of AD (Alzheimer's disease): effective in preventing the progression of AD
brain / blood-brain barrier penetration [2]: does not easily penetrate the blood-brain barrier
effect on production of Fe^2+ by Aβ1-42 (Aβ1-42 [3]): nearly halved

Aβ1-42: synthetic human Aβ peptide, residues 1-42
reduction of available Fe^3+ [4]: 50%
H2O2 generated [5]: 10 µM
SDS-resistant polymers: Monomer ([6]; pH 6.6, [Cu^2+] 0): 61.0
SDS-resistant polymers: Pentamer ([6]; pH 6.6, [Cu^2+] 0): 3.8
SDS-resistant polymers: Tetramer ([6]; pH 6.6, [Cu^2+] 0): 8.6
SDS-resistant polymers: Trimer ([6]; pH 6.6, [Cu^2+] 0): 27.3
SDS-resistant polymers: Monomer ([6]; pH 6.6, [Cu^2+] 0.5): 52.1
SDS-resistant polymers: Tetramer ([6]; pH 6.6, [Cu^2+] 0.5): 12.0
SDS-resistant polymers: Trimer ([6]; pH 6.6, [Cu^2+] 0.5): 33.8
SDS-resistant polymers: Monomer ([6]; pH 6.6, [Cu^2+] 5): 59.6
SDS-resistant polymers: Tetramer ([6]; pH 6.6, [Cu^2+] 5): 7.1
SDS-resistant polymers: Monomer ([6]; pH 6.6, [Cu^2+] 10): 52.3
SDS-resistant polymers: Pentamer ([6]; pH 6.6, [Cu^2+] 10): 2.2
SDS-resistant polymers: Tetramer ([6]; pH 6.6, [Cu^2+] 10): 13.6
SDS-resistant polymers: Monomer ([6]; pH 7.4, [Cu^2+] 0): 76.61
SDS-resistant polymers: Pentamer ([6]; pH 7.4, [Cu^2+] 0): 1.9
SDS-resistant polymers: Tetramer ([6]; pH 7.4, [Cu^2+] 0): 5.5
SDS-resistant polymers: Trimer ([6]; pH 7.4, [Cu^2+] 0): 16.0
SDS-resistant polymers: Monomer ([6]; pH 7.4, [Cu^2+] 0.5): 70.7
SDS-resistant polymers: Pentamer ([6]; pH 7.4, [Cu^2+] 0.5): 2.5
SDS-resistant polymers: Tetramer ([6]; pH 7.4, [Cu^2+] 0.5): 6.2
SDS-resistant polymers: Trimer ([6]; pH 7.4, [Cu^2+] 0.5): 20.5
SDS-resistant polymers: Monomer ([6]; pH 7.4, [Cu^2+] 1): 64.9
SDS-resistant polymers: Pentamer ([6]; pH 7.4, [Cu^2+] 1): 4.0
SDS-resistant polymers: Tetramer ([6]; pH 7.4, [Cu^2+] 1): 7.4
SDS-resistant polymers: Trimer ([6]; pH 7.4, [Cu^2+] 1): 23.6
SDS-resistant polymers: Monomer ([6]; pH 7.4, [Cu^2+] 5): 56.1
SDS-resistant polymers: Pentamer ([6]; pH 7.4, [Cu^2+] 5): 4.1
SDS-resistant polymers: Tetramer ([6]; pH 7.4, [Cu^2+] 5): 8.7
SDS-resistant polymers: Monomer ([6]; pH 7.4, [Cu^2+] 10): 55.1
SDS-resistant polymers: Pentamer ([6]; pH 7.4, [Cu^2+] 10): 4.3
SDS-resistant polymers: Tetramer ([6]; pH 7.4, [Cu^2+] 10): 10.3
SDS-resistant polymers: Monomer ([6]; pH 7.4, [Cu^2+] 30): 57.1
SDS-resistant polymers: Pentamer ([6]; pH 7.4, [Cu^2+] 30): 4.2
SDS-resistant polymers: Tetramer ([6]; pH 7.4, [Cu^2+] 30): 8.3

rat Aβ1-40: rat Aβ with substitutions R5→G, Y10→F, H13→R compared to human Aβ (DAEFGHDSGFEVRHQKLVFFAEDVGSNKGAIIGLMVGGVV; Amyloid-beta protein 40; UniProt P08592 672-711, looked up)
reduction of available Cu^2+ [7]: reduced no Cu^2+
reduction of available Fe^3+ [4]: did not significantly facilitate the reduction of Fe^3+
OH. generation (TBARS) (TBARS assay of OH.): did not generate OH

vitamin E
effect on progression of AD (Alzheimer's disease): delay the progression of clinical AD
